Assay results from patent publication US6852696B2, “Inhibitors of glycosaminoglycans” (The University of Texas System, priority 1999, dated 2005).
“Also recorded” adds a separate entry of the source.

Columns and labels:
[1] = test system: HAase (from bovine testis); assay: HAase-mediated degradation of immobilized biotinylated HA; assay type: biochemical; settings: 500 μg/ml pretreatment
Experimental: FIGS. 5A-C. Impact of Pep-1 on HA degradation products. (FIG. 5A) 96 well plates were coated with biotinylated-HA (0.1 μg/ml) and pretreated with 500 μg/ml of Pep-1 (open circles), RP (closed circles), or PBS alone (triangles) for 3 hours. These plates were then incubated for 30 min in the presence of HAase (from bovine testis). After extensive wash, the amounts of remaining biotinylated HA on the plates were determined by addition of streptavidin-alkaline phosphatase followed by p-nitrophenyl phosphate substrate. The % HA digestion was calculated from the optical densities. The data shown are the means+/−s.e.m.from triplicate samples analyzed with a hyperbolic model. (FIG. 5B) The impact of Pep-1 on HA digestion and on cell adhesion was examined in parallel using the HA-coated plates prepared simultaneously. Pep-1, RP, or PBS alone was added to the HA-coated plates as above and their effects on HAase-mediated HA degradation and on the adhesion of ^35S-labeled BW5147 thymoma cells were compared. […] Results are expressed as the means+/−s.e.m.from triplicate samples.
(§1) To test the impact of Pep-1 on HA degradation, the present inventors developed a 96 well-based assay in which biotinylated HA was immobilized onto the plates and treated with HAase. The amounts of HA that remained attached to the wells was then determined by addition of streptavidin-conjugated alkaline phosphatase (FIG. 5A).

[2] = systemic, local, or topical administration; co-pending application; cited from earlier work
B16-F10 melanoma cells = assay: In vitro growth of B16-F10 melanoma cells (3H-thymidine uptake); assay type: cell-based, mouse; settings: 3H-thymidine uptake at 24 hr
Experimental: FIGS. 4A-C. Impact of Pep-1 on lung metastasis of melanoma. (FIG. 4A) B16-F10 melanoma cells were suspended (4×10^5 cells/ml) in PBS containing Pep-1 monomer (2 or 3 mg/ml) (circles) or 2% DMSO alone (triangles). C57BL/6 mice received i.v. injection of these cell suspensions (500 μl/animal) and were examined for survival. Data shown are the cumulative survival curves from four independent experiments (n=37 for Pep-1 and n=20 for PBS control). […] (FIG. 4B) B16-F10 melanoma cells (1×10^5 cells/animal) were s.c. injected into the back of C57BL/6 mice. Pep-1 or RP (40 μg/injection) was injected locally into the tumor inoculation sites 0. 3. and 6 days after tumor injection. Data shown are the means+/−s.e.m. (n=10) of tumor sizes and tumor weights measured 10 days after tumor inoculation. (FIG. 4C) B16-F10 melanoma cells (2×10^5 cells/well) were cultured in the presence of the indicated concentrations of Pep-1 (closed circles) or PR (open circles). Data shown are the means+/−s.e.m.(n=3) of ^3H-thymidine uptake at 24 hr.

HA = assay: Adhesion of 35S-labeled BW5147 thymoma cells to HA-coated plates; assay type: cell-based; settings: 500 μg/ml pretreatment
Experimental: FIGS. 1A-B. (FIG. 1A) ^35S-labeled BW5147 thymoma cells were incubated on HA-coated plates (0.1 μg/ml) that had been pretreated with the indicated peptides (500 μg/ml). Data shown are the means+/−S.D. of % binding from quadruplicate samples. (FIG. 1B) FITC-conjugated HA (0.3 μg/ml) was preincubation with the indicated peptide (500 μg/ml) and examined for binding to BW5147 thymoma cells. Data shown are the binding of FITC-conjugated HA in the presence of the indicated peptides (closed histograms) as compared to the background autofluorescence levels (open histograms).
FIGS. 5A-C. Impact of Pep-1 on HA degradation products. […] After extensive wash, the amounts of remaining biotinylated HA on the plates were determined by addition of streptavidin-alkaline phosphatase followed by p-nitrophenyl phosphate substrate. The % HA digestion was calculated from the optical densities. The data shown are the means+/−s.e.m.from triplicate samples analyzed with a hyperbolic model. […] Results are expressed as the means+/−s.e.m.from triplicate samples.
as §1

Langerhans cells (LC) = settings: co-pending application 60/126,475; cited from earlier work
[3] = test system: XS52 DC and HDK-1 T cells; assay: Cytokine secretion in XS52 DC / HDK-1 T cell / KLH co-culture (ELISA); assay type: cell-based; settings: 500 μg/ml; dose-dependent
Experimental: FIGS. 7A-C. Impact of tetrameric LIP on cytokine production during antigen presentation. (FIG. 7A) XS52 DC (0.2×10^6 cells/well) were cultured in the presence or absence of the KLH-reactive CD4^+ Thl clone HDK-1 (0.2×10^6 cells/well) and/or KLH (100 μg/ml). Culture supernatants collected at 24 hrs were examined for the indicated cytokines by ELISA. Data shown are the means+/−s.e.m. from triplicate samples. (FIG. 7B) XS52 DC and HDK-1 T cells were co-cultured with KLH in the presence of the indicated concentrations of Pep-1. Culture supernatants collected at 24 hrs were examined for the indicated cytokines by ELISA. (FIG. 7C) CD4^+ T cells isolated from DO11.10 transgenic mice (5×10^4 cells/well) were co-cultured with the indicated numbers of splenic DC isolated from BALB/c mice and the OVA peptide (2 μg/ml) in the presence of 500 μg/ml of Pep-1 (open circles), RP (triangles), or DMSO alone (closed circles). Co-cultures of CD4^+ T cells and DC in the absence of OVA peptide served as a control (square). All the cultures were examined for ^3H-thymidine uptake on Day 3. Data shown are the means+/−s.d. from triplicate samples.
During antigen-specific interaction DC delivers activation signals to T cells, leading to differentiation and clonal expansion of antigen-reactive T cells. At the same time, T cells deliver signals back to DC, leading to “terminal maturation” of DC^80. To test the potential impact of Pep-1 on this bi-directional DC-T cell interaction, the present inventors employed a fully characterized in vitro experimental system in which XS52 DC are cultured with a KLH-reactive CD4^+ Th1 clone HDK-1 in the presence of antigen (KLH)^81-85.

For GAHWQFNALTVR [Pep-1], the “effect on HAase-mediated HA degradation” value [1] is listed as “failed to affect the degradation of HA substrates”, the “inhibition of contact hypersensitivity responses” value [2] is listed as “inhibited the expression of contact hypersensitivity responses” and the “effect on in vitro growth of B16-F10 melanoma cells” value (B16-F10 melanoma cells) is listed as “no apparent effects”. The “inhibition of BW5147 cell adhesion to HA substrate” value (HA) was “blocked BW5147 cell adhesion; also recorded: significant (p<0.01 by ANOVA) inhibition of cell adhesion”, the “inhibition of sensitization phase / hapten-triggered LC migration” value (Langerhans cells (LC)) was “blocking hapten-triggered migration of Langerhans cells” and the “inhibition of IL-6 secretion” value [3] was “almost complete inhibition”. The “inhibition of TNFα secretion” value [3] was “almost complete inhibition” and the “inhibition of interferon-γ secretion” value [3] was “almost complete inhibition”.
